Results on five compounds are retold here after ChEMBL document CHEMBL2074213, “In vitro activities of native and designed peptide antibiotics against drug sensitive and resistant tumor cell lines” (Peptides, 2003).

Bridge positions count the residues as written; N and C are the ends. Peptide text beside a SMILES is read from it.

For the series, the target named is ATP-dependent translocase ABCB1 (Homo sapiens, UniProt P08183). Description: TP_TRANSPORTER: drug resistance in MCF-7/Dox cells. The format is functional, cell-based.
Chain of ATP-dependent translocase ABCB1 (P08183 whole entry): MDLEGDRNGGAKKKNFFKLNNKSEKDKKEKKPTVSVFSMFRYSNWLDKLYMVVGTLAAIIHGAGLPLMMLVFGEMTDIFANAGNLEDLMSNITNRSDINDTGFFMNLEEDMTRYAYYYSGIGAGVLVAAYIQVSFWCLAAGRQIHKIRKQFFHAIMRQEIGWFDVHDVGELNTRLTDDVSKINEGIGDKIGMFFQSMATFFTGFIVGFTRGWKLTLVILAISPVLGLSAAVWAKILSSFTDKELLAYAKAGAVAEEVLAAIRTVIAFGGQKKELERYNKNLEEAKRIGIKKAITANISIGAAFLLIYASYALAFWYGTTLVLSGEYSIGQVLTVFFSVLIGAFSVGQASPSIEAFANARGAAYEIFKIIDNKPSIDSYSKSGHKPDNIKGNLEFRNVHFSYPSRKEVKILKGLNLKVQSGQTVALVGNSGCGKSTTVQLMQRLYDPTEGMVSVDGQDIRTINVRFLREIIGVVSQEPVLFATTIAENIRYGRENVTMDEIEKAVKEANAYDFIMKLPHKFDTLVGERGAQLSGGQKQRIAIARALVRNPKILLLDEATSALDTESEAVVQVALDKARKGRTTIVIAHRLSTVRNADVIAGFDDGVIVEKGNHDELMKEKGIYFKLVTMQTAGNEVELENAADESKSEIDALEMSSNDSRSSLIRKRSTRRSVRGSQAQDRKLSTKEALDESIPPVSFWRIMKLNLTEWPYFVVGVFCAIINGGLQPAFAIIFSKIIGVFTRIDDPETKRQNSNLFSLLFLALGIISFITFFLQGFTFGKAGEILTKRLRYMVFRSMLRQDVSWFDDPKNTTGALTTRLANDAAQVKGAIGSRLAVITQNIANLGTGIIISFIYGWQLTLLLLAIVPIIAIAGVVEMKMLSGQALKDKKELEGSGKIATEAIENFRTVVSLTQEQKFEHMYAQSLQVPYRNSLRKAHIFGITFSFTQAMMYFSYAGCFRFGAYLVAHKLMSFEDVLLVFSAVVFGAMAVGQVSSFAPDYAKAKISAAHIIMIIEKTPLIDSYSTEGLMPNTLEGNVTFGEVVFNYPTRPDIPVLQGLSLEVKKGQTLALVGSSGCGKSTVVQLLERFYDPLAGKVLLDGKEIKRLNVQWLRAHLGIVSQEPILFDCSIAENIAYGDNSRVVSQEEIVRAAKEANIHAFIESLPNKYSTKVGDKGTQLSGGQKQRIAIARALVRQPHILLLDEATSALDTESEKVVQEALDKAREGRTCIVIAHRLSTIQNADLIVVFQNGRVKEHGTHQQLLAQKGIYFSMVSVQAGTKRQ

Consider H-FLGALFKALCKLL-OH, for which the Activity result was “is not a substrate [-]”. As for `CC(=O)O[C@H]1C(=O)[C@@]2(C)[C@H]([C@H](OC(=O)c3ccccc3)[C@]3(O)C[C@H](OC(=O)[C@H](O)[C@@H](NC(=O)c4ccccc4)c4ccccc4)C(C)=C1C3(C)C)[C@]1(OC(C)=O)CO[C@@H]1C[C@@H]2O` [PACLITAXEL], the Activity result was “substrate [+]”.

As for `COc1cccc2c1C(=O)c1c(O)c3c(c(O)c1C2=O)C[C@@](O)(C(=O)CO)C[C@@H]3O[C@H]1C[C@H](N)[C@H](O)[C@H](C)O1` [DOXORUBICIN], the Activity entry is “substrate [+]”.

Regarding H-FLGALFKALSKLL-OH, the Activity entry was “is not a substrate [-]”.

As for `CC[C@H](C)[C@@H]1NC(=O)[C@H](CCCCN)NC(=O)[C@@H](NC(=O)[C@@H](NC(=O)[C@@H](NC(=O)[C@@H](NC(=O)[C@@H]2CCCN2C(=O)[C@H](CC(C)C)NC(=O)[C@H](Cc2ccccc2)NC(=O)[C@H](CC(N)=O)NC(=O)[C@H](C)NC(=O)[C@H](C)NC(=O)[C@H](CC(C)C)NC(=O)CNC(=O)[C@H](C)NC(=O)[C@H](CC(C)C)NC(=O)[C@H](CC(C)C)NC(=O)[C@@H]2CCCN2C(=O)[C@H](CC(C)C)NC(=O)[C@@H](N)Cc2ccccc2)[C@@H](C)O)[C@@H](C)CC)[C@@H](C)CC)CSSC[C@@H](C(=O)O)NC(=O)[C@H](CCCCN)NC(=O)[C@H](Cc2ccc(O)cc2)NC(=O)[C@H](CO)NC1=O` [GAEGURIN 6] (H-FLPLLAGLAANFLPTIICKISYKC-OH; disulfide 18-24), the Activity result was “is not a substrate [-]”.
